Assay results as given in PMC7893776, “Selecting an anti-malarial clinical candidate from two potent dihydroisoquinolones” (Malaria Journal, 2021).
Values joined by “and” are separate entries in the source; they are usually repeats but may differ in a detail not shown here. Identical values can stand only once.

How the values were obtained:
Format in all cases: in vitro ADME
CYP3A4 = molecular target: T1, CYP3A4 (Homo sapiens, UniProt P08684); experiment: CYP450 inhibition, CYP3A4
T1 construct: purchased Cypex Ltd (Bactosomes)
T1 sequence (P08684 whole entry): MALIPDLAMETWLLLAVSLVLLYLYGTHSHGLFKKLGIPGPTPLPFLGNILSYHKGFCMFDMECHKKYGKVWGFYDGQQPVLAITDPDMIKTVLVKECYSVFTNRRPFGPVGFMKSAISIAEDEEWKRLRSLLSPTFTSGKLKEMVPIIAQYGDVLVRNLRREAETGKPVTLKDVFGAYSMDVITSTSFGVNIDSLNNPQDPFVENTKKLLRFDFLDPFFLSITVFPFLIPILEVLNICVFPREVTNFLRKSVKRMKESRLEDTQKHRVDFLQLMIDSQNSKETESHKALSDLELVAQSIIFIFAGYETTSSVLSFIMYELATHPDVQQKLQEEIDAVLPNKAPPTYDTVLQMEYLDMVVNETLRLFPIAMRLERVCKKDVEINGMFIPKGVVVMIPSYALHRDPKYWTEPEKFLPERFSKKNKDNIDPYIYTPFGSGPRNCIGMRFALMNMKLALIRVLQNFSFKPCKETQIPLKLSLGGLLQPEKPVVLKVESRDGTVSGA

[1] = Microsomal stability, rat; settings: for CLint in vivo: scaled up using PBSF
Protocol: The metabolic stability assay was performed by incubating compounds individually (0.8, 4, or 20 µM) with mouse, rat, dog and human liver microsomes (Fisher, 0.5 mg/mL protein concentration) at 37 °C. The metabolic reaction was initiated by the addition of a NADPH-regenerating system and quenched at various time points by the addition of acetonitrile according to a published method.
The remaining concentration of each compound was measured as a ratio of peak area to the internal standard. The log peak area ratio was plotted vs. time (h), and the slope was determined to calculate the elimination rate constant [k = (− 2.303) * slope]. If deviation from first order kinetics was evident, only the initial linear portion of the plot was used to determine the rate constate, k. The half-life (h) was calculated as t1/2 = 0.693/k. Intrinsic clearance in vitro was calculated as CLintin vitro = (1000)*(0.693/t1/2*60)/0.5, where microsomal concentration in the reaction solution was 0.5 mg/mL; 1000 and 60 are scaling factors for volume (µL) and time (min), respectively. The intrinsic in vitro clearance was scaled to the intrinsic in vivo clearance using physiology based scaling factor (PBSF): CLint in vivo= CLint in vitro *PBSF: (microsome protein/gram liver) * (gram liver/kg b.w.), with PBSF: 47 (mouse), 47(rat), 58 (dog), 32 (human); and liver weight proportions: 54.9 (mouse), 36.6 (rat), 32.9 (dog) 25.7 (human).

CYP2C9 = molecular target: T2, CYP2C9 (Homo sapiens, UniProt P11712); experiment: CYP450 inhibition, CYP2C9; settings: for inhibition of CYP2C9: 10 µM, probe substrate Diclofenac, replicate measurements
T2 construct: purchased Cypex Ltd (Bactosomes)
T2 sequence (P11712 whole entry): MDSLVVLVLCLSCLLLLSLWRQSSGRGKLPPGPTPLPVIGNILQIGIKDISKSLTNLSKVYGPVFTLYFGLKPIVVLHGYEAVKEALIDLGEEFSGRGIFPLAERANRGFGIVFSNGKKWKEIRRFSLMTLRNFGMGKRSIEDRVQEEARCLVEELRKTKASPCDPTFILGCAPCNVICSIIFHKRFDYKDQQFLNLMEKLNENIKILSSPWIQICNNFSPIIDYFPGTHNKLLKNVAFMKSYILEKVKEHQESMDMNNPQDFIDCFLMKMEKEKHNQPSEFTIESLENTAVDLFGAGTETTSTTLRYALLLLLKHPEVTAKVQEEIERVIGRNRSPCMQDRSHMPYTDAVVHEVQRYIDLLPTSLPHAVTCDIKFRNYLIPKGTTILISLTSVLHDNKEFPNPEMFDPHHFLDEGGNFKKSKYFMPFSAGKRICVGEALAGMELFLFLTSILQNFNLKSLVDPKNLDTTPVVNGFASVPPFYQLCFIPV
Protocol: SJ733 was first pre-incubated with Bactosomes™ (Cypex Ltd, final P450 concentration: CYP1A1 25 pmol/mL, CYP1A2 100 pmol/mL,CYP1B1 100 pmol/mL, CYP2B6 100 pmol/mL, CYP2C8 50 pmol/mL, CYP2C9, 25 pmol/mL, CYP2C19 100 pmol/mL, CYP2D6 50 pmol/mL and CYP3A4 25 pmol/mL, 0.1 M phosphate buffer pH 7.4) at 37 °C prior to the addition of NADPH (final concentration 1 mM) to initiate the reaction with a final incubation volume of 50 μL. Incubations were also performed using control Bactosomes™ (no P450 enzymes present) to reveal any non-enzymatic degradation. Control compounds known to be metabolized specifically by each P450 isoform were included individually. Test articles and controls were incubated with each isoform for 0, 5, 15, 30, and 45 min. The reactions were stopped by transferring 20 μL of the reaction mixture to 60 μL methanol at the appropriate timepoints.
In an alternate approach SJ311 was studied using a validated cocktail probe substrate method. […] All samples were analyzed using LC MS/MS, with either positive atmospheric pressure chemical ionization (APCI) mode (SJ311) or ESI (SJ733) mode utilizing multiple reaction monitoring (MRM) scans.

CYP1A2 = molecular target: T3, CYP1A2 (Homo sapiens, UniProt P05177); experiment: CYP450 inhibition, CYP1A2; settings: for inhibition of CYP1A2: 10 µM, probe substrate Ethoxy-resorufin, replicate measurements
T3 construct: purchased Cypex Ltd (Bactosomes)
T3 sequence (P05177 1-516): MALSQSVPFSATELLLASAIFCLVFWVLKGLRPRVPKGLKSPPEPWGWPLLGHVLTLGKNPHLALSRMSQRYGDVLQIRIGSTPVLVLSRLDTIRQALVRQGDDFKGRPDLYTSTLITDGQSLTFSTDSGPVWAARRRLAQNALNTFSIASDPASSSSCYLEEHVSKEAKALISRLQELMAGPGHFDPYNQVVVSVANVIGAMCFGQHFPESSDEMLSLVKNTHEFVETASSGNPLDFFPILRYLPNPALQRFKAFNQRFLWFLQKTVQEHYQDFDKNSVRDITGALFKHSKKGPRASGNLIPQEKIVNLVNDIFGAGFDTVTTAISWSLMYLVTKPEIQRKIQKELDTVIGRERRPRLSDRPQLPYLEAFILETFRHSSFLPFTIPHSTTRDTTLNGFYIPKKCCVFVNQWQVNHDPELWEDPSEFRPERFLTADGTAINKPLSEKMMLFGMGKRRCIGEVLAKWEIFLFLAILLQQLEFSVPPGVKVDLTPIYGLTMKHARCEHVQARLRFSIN

CYP2D6 = molecular target: T4, CYP2D6 (Homo sapiens, UniProt P10635); experiment: CYP450 inhibition, CYP2D6; settings: for inhibition of CYP2D6: 10 µM, probe substrate Bufuralol, replicate measurements
T4 construct: purchased Cypex Ltd (Bactosomes)
T4 sequence (P10635 whole entry): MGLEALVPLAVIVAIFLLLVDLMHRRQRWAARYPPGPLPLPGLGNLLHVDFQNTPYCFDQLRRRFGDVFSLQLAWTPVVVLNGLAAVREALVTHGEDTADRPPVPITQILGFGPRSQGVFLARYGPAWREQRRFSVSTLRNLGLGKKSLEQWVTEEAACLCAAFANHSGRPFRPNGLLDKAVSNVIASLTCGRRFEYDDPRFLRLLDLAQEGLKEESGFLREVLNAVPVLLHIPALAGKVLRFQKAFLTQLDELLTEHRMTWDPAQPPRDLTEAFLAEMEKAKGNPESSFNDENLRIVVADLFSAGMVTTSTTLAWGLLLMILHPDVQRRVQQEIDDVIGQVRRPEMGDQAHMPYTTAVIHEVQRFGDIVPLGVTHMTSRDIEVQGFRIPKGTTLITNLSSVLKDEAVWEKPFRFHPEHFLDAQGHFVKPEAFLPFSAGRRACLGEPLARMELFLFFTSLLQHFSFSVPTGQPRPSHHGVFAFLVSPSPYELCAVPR

[2] = 10 µM, probe substrate Midazolam, replicate measurements
[3] = rat microsomes, 0.8 µM, independent replicate to Table 4
[4] = rat microsomes, 4 µM, independent replicate to Table 4
[5] = rat microsomes, 20 µM, independent replicate to Table 4

Structure (SMILES)	CYP3A4 inhibition, in words (CYP3A4)	CYP2C9 inhibition, in words (CYP2C9)	CYP1A2 inhibition, in words (CYP1A2)	CYP2D6 inhibition, in words (CYP2D6)	CLint ([1]; rat microsomes, 0.8 µM)	t1/2 ([1]; rat microsomes, 0.8 µM)	inhibition of CYP3A4 (CYP3A4; [2])	inhibition of CYP2C9 (CYP2C9)	inhibition of CYP1A2 (CYP1A2)	inhibition of CYP2D6 (CYP2D6)	CLint in vitro [1, 3]	CLint in vivo ([1]; rat microsomes, 0.8 µM)	CLint in vitro [1, 4]	CLint in vivo ([1]; rat microsomes, 4 µM)	CLint in vitro [1, 5]	CLint in vivo ([1]; rat microsomes, 20 µM)	other results
N#Cc1cc(NC(=O)C2c3ccccc3C(=O)N(CC(F)(F)F)C2c2cn[nH]c2)ccc1F (racemic) [(r)-SJ311]							54% and 52%	19% and 15%	5% and 0.5%	11%							CLint in vitro ([1]; rat microsomes, 20, 4, 0.8 µM): <7 µl/min/mg protein; CLint in vivo ([1]; rat microsomes, 20, 4, 0.8 µM): <11.7 mL/min/kg
N#Cc1cc(NC(=O)C2c3ccccc3C(=O)N(CC(F)(F)F)C2c2cccnc2)ccc1F (racemic) [(r)-SJ733]							42% and 33%	34% and 17%	10.8%	7% and 9%	<7 µl/min/mg protein	<11.7 mL/min/kg	<7 µl/min/mg protein	<11.7 mL/min/kg	<7 µl/min/mg protein	<11.7 mL/min/kg	
N#Cc1cc(NC(=O)[C@H]2c3ccccc3C(=O)N(CC(F)(F)F)[C@@H]2c2cn[nH]c2)ccc1F [(+)-SJ311]					< 7 µl/min/mg protein	> 4 h											
N#Cc1cc(NC(=O)[C@H]2c3ccccc3C(=O)N(CC(F)(F)F)[C@@H]2c2cccnc2)ccc1F [(+)-SJ733]					< 7 µl/min/mg protein	> 4 h					<7 µl/min/mg protein	<11.7 mL/min/kg	<7 µl/min/mg protein	<11.7 mL/min/kg	<7 µl/min/mg protein	<11.7 mL/min/kg	

Further lines, with some results ahead:

CYP3A4 inhibition, in words (CYP3A4)	CYP2C9 inhibition, in words (CYP2C9)	CYP1A2 inhibition, in words (CYP1A2)	CYP2D6 inhibition, in words (CYP2D6)	CLint ([1]; rat microsomes, 0.8 µM)	t1/2 ([1]; rat microsomes, 0.8 µM)	Structure (SMILES)	inhibition of CYP3A4 (CYP3A4; [2])	inhibition of CYP2C9 (CYP2C9)	inhibition of CYP1A2 (CYP1A2)	inhibition of CYP2D6 (CYP2D6)	CLint in vitro [1, 3]	CLint in vivo ([1]; rat microsomes, 0.8 µM)	CLint in vitro [1, 4]	CLint in vivo ([1]; rat microsomes, 4 µM)	CLint in vitro [1, 5]	CLint in vivo ([1]; rat microsomes, 20 µM)	other results
moderate inhibitors	weak inhibitors	weak inhibitors	weak inhibitors			N#Cc1cc(NC(=O)[C@H]2c3ccccc3C(=O)N(CC(F)(F)F)[C@@H]2c2cccnc2)ccc1F (racemic) [SJ733]											
moderate inhibitors	weak inhibitors	weak inhibitors	weak inhibitors			N#Cc1cc(NC(=O)[C@H]2c3ccccc3C(=O)N(CC(F)(F)F)[C@@H]2c2cn[nH]c2)ccc1F [SJ311]											inhibition at 10 µM (CYP3A4; human, pH 7.4, 10 µM, probe substrate Midazolam, replicate measurements): 53%
